Test results as given in PMC8256334, “Simultaneous Determination of a Novel PD-L1 Inhibitor, IMMH-010, and Its Active Metabolite, YPD-29B, in Rat Biological Matrices by Polarity-Switching Liquid Chromatography-Tandem Mass Spectrometry: Application to ADME Studies” (Frontiers in Pharmacology, 2021).
Values joined by “and” are separate entries in the source; they are usually repeats but may differ in a detail not shown here. Equal values may be shown once. Read-outs that look alike come from different tables or passages of the source.

Tests used:
Assay type in all cases: in vivo, Sprague-Dawley rats
[1] = PK study in rats after single i.g. administration of IMMH-010 maleate; details: for AUC(0-inf) / AUC(0-t) / Cmax / MRT last / MRT inf / Tmax / half-life: female, Sprague-Dawley, po; for MRT last: read-out: MRT(0-t); for MRT inf: read-out: MRT(0-∞); for Tmax: median (range); for half-life: rat, plasma
Excerpt: (§1) Female Sprague-Dawley rats (200 ± 20 g, Vital River, Beijing, China) were kept in standard environmental conditions. Rats were fasted overnight with free access to water and randomly assigned to different groups before the experiments. All animal protocols were approved by the Institute Animal Care and Welfare Committee of the Institute of Materia Medica, Chinese Academy of Medical Sciences and Peking Union Medical College.
IMMH-010 maleate was suspended in 0.5% sodium carboxymethyl cellulose. The rats were intragastrically (i.g.) administered IMMH-010 maleate at doses of 10, 30, and 100 mg/kg. Blood samples were withdrawn via the orbital plexus into heparinized tubes with NaF at 5, 15, and 30 min and 1, 2, 4, 6, 8, 12, 24, 36, and 48 h. Plasma was immediately prepared by centrifugation at 5,000 rpm for 10 min. All samples were stored at −20°C prior to analysis. The PK parameters of IMMH-010 and YPD-29B were calculated using the Linear Trapezoidal with Linear Interpolation method by WinNonlin software version 6.3 based on a noncompartmental model (Pharsight Corporation, Mountain View, United States ).

[2] = Tissue distribution study in rats; details: for concentration in adrenal gland / concentration in brain / concentration in heart / concentration in kidney / concentration in liver / concentration in lung / concentration in lymph / concentration in plasma / concentration in spleen / concentration in thymus: n = 5; for Kp at 0.25 h / Kp at 0.5 h / Kp at 4 h: female, Sprague-Dawley, rat, oral, i.g. 10 mg/kg IMMH-010 maleate, read-out: T/P (tissue-to-plasma partition)
Procedure: as §1
The tissue distribution study was performed 15 min, 30 min, 4 h and 12 h after i. g. administration of 10 mg/kg IMMH-010 maleate. Blood was collected and centrifuged at 5,000 rpm for 10 min. The heart, liver, brain, spleen, lung, kidney, adrenal gland, thymus, and lymph were harvested immediately. The tissues were washed with normal saline and blotted dry with filter paper. All samples were stored at -20°C before analysis.

[3] = Excretion study in rats (urine and feces); details: for excretion in feces, % Of administered dose / excretion in urine, % Of administered dose: i.g. IMMH-010 maleate 10 mg/kg, n = 5
Procedure: as §1
After i. g. administration of IMMH-010 maleate (10 mg/kg), rats were housed in separate metabolite cages to collect their urine and feces: 0–12, 12–24, 24–36, 36–48, and 48–72 h for urine and 0–24, 24–48, and 48–72 h for feces. Fecal samples were dried in air. Urine samples were stored at −20°C prior to analysis.

[4] = rat plasma, single i.g. IMMH-010 maleate 10 mg/kg, mean ± SD, n = 5
[5] = rat plasma, single i.g. IMMH-010 maleate 30 mg/kg, mean ± SD, n = 5
[6] = rat plasma, single i.g. IMMH-010 maleate 100 mg/kg, mean ± SD, n = 5
[7] = time 0.25 (15 min) after i.g. 10 mg/kg IMMH-010 maleate
[8] = time 0.5 (30 min) after i.g. 10 mg/kg IMMH-010 maleate
[9] = time 4 (4 h) after i.g. 10 mg/kg IMMH-010 maleate

AUC(0-inf) [1, 4]: 110 ± 46.6 ng·h/mL | AUC(0-t) [1, 4]: 94.3 ± 46.3 ng·h/mL | Cmax [1, 4]: 63.7 ± 29.1 ng/mL | MRT last [1, 4]: 1.5 ± 0.4 h | MRT inf [1, 4]: 2.27 ± 0.96 h | Tmax ([1]; rat plasma, single i.g. IMMH-010 maleate 10 mg/kg, n = 5): 0.5 h | AUC(0-inf) [1, 5]: 521 ± 114 ng·h/mL | AUC(0-t) [1, 5]: 503 ± 110 ng·h/mL | Cmax [1, 5]: 268 ± 43 ng/mL | MRT last [1, 5]: 1.55 ± 0.14 h | MRT inf [1, 5]: 2.06 ± 0.55 h | Tmax ([1]; rat plasma, single i.g. IMMH-010 maleate 30 mg/kg, n = 5): 0.5 h | AUC(0-inf) [1, 6]: 1640 ng·h/mL | AUC(0-t) [1, 6]: 1620 ng·h/mL | Cmax [1, 6]: 569 ± 72 ng/mL | MRT last [1, 6]: 2.88 ± 0.89 h | MRT inf [1, 6]: 3.12 ± 0.87 h | Tmax ([1]; rat plasma, single i.g. IMMH-010 maleate 100 mg/kg, n = 5): 1 h | half-life ([1]; 10 mg/kg, rat plasma, single i.g. IMMH-010 maleate 10 mg/kg, mean ± SD, n = 5, read-out: t1/2β (converted)): 1.57 ± 1.08 h | half-life ([1]; 30 mg/kg, rat plasma, single i.g. IMMH-010 maleate 30 mg/kg, mean ± SD, n = 5, read-out: t1/2β (converted)): 3.65 ± 2.77 h | half-life ([1]; 100 mg/kg, rat plasma, i.g. IMMH-010 maleate 10, 30 and 100 mg/kg, range over doses, read-out: average plasma elimination half-life (t1/2β)): 1.57 to 3.65 h | half-life ([1]; 100 mg/kg, rat plasma, single i.g. IMMH-010 maleate 100 mg/kg, mean ± SD, n = 5, read-out: t1/2β (converted)): 3.1 ± 1.76 h | dose dependence of AUC ([1]; rat plasma, dose range 10–100 mg/kg IMMH-010 maleate, oral): proportional to the dose | time postdose at which the metabolite could be detected in plasma ([1]; rats, after oral administration of IMMH-010 maleate): 5 min | concentration in adrenal gland ([2]; adrenal gland, time 0.25 (15 min) after i.g. 10 mg/kg IMMH-010 maleate): 15.3 ± 10.8 ng/ml or ng/g | concentration in adrenal gland ([2]; adrenal gland, time 0.5 (30 min) after i.g. 10 mg/kg IMMH-010 maleate): 39.7 ± 45.3 ng/ml or ng/g | concentration in adrenal gland ([2]; adrenal gland, time 4 (4 h) after i.g. 10 mg/kg IMMH-010 maleate): BLQ | concentration in brain [2, 7]: BLQ | concentration in brain [2, 8]: BLQ | concentration in brain [2, 9]: BLQ | Kp at 0.25 h ([2]; adrenal gland): 0.5 | Kp at 0.5 h ([2]; adrenal gland): 0.7 | Kp at 0.25 h ([2]; heart): 0.5 | Kp at 0.5 h ([2]; heart): 0.7 | Kp at 0.25 h ([2]; kidney): 2 | Kp at 0.5 h ([2]; kidney): 4.8 | Kp at 4 h ([2]; kidney): 34.6 | Kp at 0.25 h ([2]; liver): 43.8 | Kp at 0.5 h ([2]; liver): 58.2 | Kp at 4 h ([2]; liver): 40.1 | Kp at 0.25 h ([2]; lung): 1.1 | Kp at 0.5 h ([2]; lung): 2 | Kp at 4 h ([2]; lung): 4.4 | Kp at 0.25 h ([2]; lymph): 1.6 | Kp at 0.5 h ([2]; lymph): 6.8 | Kp at 4 h ([2]; lymph): 9.1 | Kp at 0.25 h ([2]; spleen): 0.5 | Kp at 0.5 h ([2]; spleen): 0.9 | Kp at 0.5 h ([2]; thymus): 0.05 | Kp at 4 h ([2]; thymus): 0.5 | concentration in heart ([2]; heart, time 0.25 (15 min) after i.g. 10 mg/kg IMMH-010 maleate): 17.3 ± 11.9 ng/ml or ng/g | concentration in heart ([2]; heart, time 0.5 (30 min) after i.g. 10 mg/kg IMMH-010 maleate): 39.6 ± 33.7 ng/ml or ng/g | concentration in heart ([2]; heart, time 4 (4 h) after i.g. 10 mg/kg IMMH-010 maleate): BLQ | concentration in kidney ([2]; kidney, time 0.25 (15 min) after i.g. 10 mg/kg IMMH-010 maleate): 64.2 ± 40.4 ng/ml or ng/g | concentration in kidney ([2]; kidney, time 0.5 (30 min) after i.g. 10 mg/kg IMMH-010 maleate): 265 ± 222 ng/ml or ng/g | concentration in kidney ([2]; kidney, time 4 (4 h) after i.g. 10 mg/kg IMMH-010 maleate): 168 ± 23 ng/ml or ng/g | concentration in liver ([2]; liver, time 0.25 (15 min) after i.g. 10 mg/kg IMMH-010 maleate): 1,403 ± 962 ng/ml or ng/g | concentration in liver ([2]; liver, time 0.5 (30 min) after i.g. 10 mg/kg IMMH-010 maleate): 3,239 ± 2,833 ng/ml or ng/g | concentration in liver ([2]; liver, time 4 (4 h) after i.g. 10 mg/kg IMMH-010 maleate): 195 ± 56 ng/ml or ng/g | concentration in lung ([2]; lung, time 0.25 (15 min) after i.g. 10 mg/kg IMMH-010 maleate): 35.7 ± 22.8 ng/ml or ng/g | concentration in lung ([2]; lung, time 0.5 (30 min) after i.g. 10 mg/kg IMMH-010 maleate): 109 ± 104 ng/ml or ng/g | concentration in lung ([2]; lung, time 4 (4 h) after i.g. 10 mg/kg IMMH-010 maleate): 21.4 ± 6.8 ng/ml or ng/g | concentration in lymph ([2]; lymph, time 0.25 (15 min) after i.g. 10 mg/kg IMMH-010 maleate): 51.5 ± 41.0 ng/ml or ng/g | concentration in lymph ([2]; lymph, time 0.5 (30 min) after i.g. 10 mg/kg IMMH-010 maleate): 378 ± 451 ng/ml or ng/g | concentration in lymph ([2]; lymph, time 4 (4 h) after i.g. 10 mg/kg IMMH-010 maleate): 44.0 ± 13.9 ng/ml or ng/g | concentration in plasma [2, 7]: 32.0 ± 25.2 ng/ml or ng/g | concentration in plasma [2, 8]: 55.7 ± 51.6 ng/ml or ng/g | concentration in plasma [2, 9]: 4.86 ± 1.39 ng/ml or ng/g | concentrations in tissues at 12 h ([2]; rat tissues, 12 h after oral 10 mg/kg IMMH-010 maleate): below the LLOQ | concentration in spleen ([2]; spleen, time 0.25 (15 min) after i.g. 10 mg/kg IMMH-010 maleate): 15.1 ± 10.8 ng/ml or ng/g | concentration in spleen ([2]; spleen, time 0.5 (30 min) after i.g. 10 mg/kg IMMH-010 maleate): 48.4 ± 47.9 ng/ml or ng/g | concentration in spleen ([2]; spleen, time 4 (4 h) after i.g. 10 mg/kg IMMH-010 maleate): BLQ | concentration in thymus ([2]; thymus, time 0.25 (15 min) after i.g. 10 mg/kg IMMH-010 maleate): BLQ | concentration in thymus ([2]; thymus, time 0.5 (30 min) after i.g. 10 mg/kg IMMH-010 maleate): 2.74 ± 6.12 ng/ml or ng/g | concentration in thymus ([2]; thymus, time 4 (4 h) after i.g. 10 mg/kg IMMH-010 maleate): 2.23 ± 4.99 ng/ml or ng/g | excretion in feces, % Of administered dose ([3]; time 24 h): 14.56 ± 8.45 % Of administered dose | excretion in feces, % Of administered dose ([3]; time 48 h): 19.42 ± 6.85 % Of administered dose | share of the dose recovered in the urine and feces as this analyte ([3]; urine and feces within 72 h, rats, oral IMMH-010 maleate): 20.82% | excretion in urine, % Of administered dose ([3]; time 12 h): 0.52 ± 0.15 % Of administered dose | excretion in urine, % Of administered dose ([3]; time 24 h): 0.63 ± 0.15 % Of administered dose | excretion in urine, % Of administered dose ([3]; time 36 h): 0.71 ± 0.17 % Of administered dose | excretion in urine, % Of administered dose ([3]; time 48 h): 0.85 ± 0.36 % Of administered dose
Compound: O=C(O)[C@H](CO)NCc1cc(Cl)c(OCc2cccc(-c3ccccc3)c2Br)cc1OCc1cccnc1 [YPD-29B]
tissues of main distribution ([2]; rats, oral 10 mg/kg IMMH-010 maleate): liver, followed by the lymph, kidney, and lung | excretion in feces, % Of administered dose ([3]; time 72 h): 19.65 % Of administered dose and 19.65 ± 6.76 % Of administered dose | excretion in urine, % Of administered dose ([3]; time 72 h): 1.17 % Of administered dose and 1.17 ± 0.91 % Of administered dose
